Several values for one entry are separate records, joined by “and”; a condition that tells them apart may be missing. Identical values can stand only once. Toxic doses and inconclusive results are not listed.
System: B6C3F1 mice, ip Sarcoma M5076, median survival T/C
Test: NCI In Vivo Anticancer Drug Screen. Data for tumor model Sarcoma M5076 (intraperitoneal) in B6C3F1 mice
Settings: endpoint: median survival time, higher = longer survival
Procedure, shortened: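 Survival measured in treated (T) and vehicle control (C) mice with transplantable tumour; result given as T divided by C.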

[1] = dose: 50.0 mg/kg/injection, schedule: Q04DX004 (ip), vehicle: saline with Tween-80
[2] = dose: 100.0 mg/kg/injection, schedule: Q04DX004 (ip), vehicle: saline with Tween-80
[3] = dose: 200.0 mg/kg/injection, schedule: Q04DX004 (ip), vehicle: saline with Tween-80
[4] = dose: 400.0 mg/kg/injection, schedule: Q04DX004 (ip), vehicle: saline with Tween-80

Structure (SMILES): COC1=C(C)C(=O)C2=C(C1=O)C(CO)N1C(C#N)C3CC4C(C1C2N1CCOC41)N3C (configuration not stated)
- T/C (dose: 0.12 mg/kg/injection, schedule: Q04DX004 (ip), vehicle: acid diluted with saline): 97 % of control
- T/C (dose: 0.25 mg/kg/injection, schedule: Q04DX004 (ip), vehicle: acid diluted with saline): 103 % of control
- T/C (dose: 0.5 mg/kg/injection, schedule: Q04DX004 (ip), vehicle: acid diluted with saline): 100 % of control
- T/C (dose: 1.0 mg/kg/injection, schedule: Q04DX004 (ip), vehicle: acid diluted with saline): 90 % of control and 93 % of control
- T/C (dose: 2.0 mg/kg/injection, schedule: Q04DX004 (ip), vehicle: acid diluted with saline): 98 % of control and 109 % of control

Structure (SMILES): O=NNc1ccc2cccnc2n1
- T/C (dose: 12.5 mg/kg/injection, schedule: Q04DX004 (ip), vehicle: water): 104 % of control
- T/C (dose: 25.0 mg/kg/injection, schedule: Q04DX004 (ip), vehicle: water): 116 % of control
- T/C (dose: 50.0 mg/kg/injection, schedule: Q04DX004 (ip), vehicle: water): 151 % of control
- T/C (dose: 100.0 mg/kg/injection, schedule: Q04DX004 (ip), vehicle: water): 151 % of control and 161 % of control
- T/C (dose: 200.0 mg/kg/injection, schedule: Q04DX004 (ip), vehicle: water): 174 % of control

Structure (SMILES): Clc1nc2cc3c(cc2n2cccc12)oc1ccccc13
- T/C (dose: 25.0 mg/kg/injection, schedule: Q04DX004 (ip), vehicle: saline with Tween-80): 93 % of control
- T/C [1]: 95 % of control
- T/C [2]: 94 % of control
- T/C [3]: 86 % of control
- T/C [4]: 86 % of control

Structure (SMILES): Nc1ccc2c(c1)C1(CCC2)NC(=O)NC1=O (configuration not stated)
- T/C [1]: 97 % of control
- T/C [2]: 96 % of control
- T/C [3]: 98 % of control
- T/C [4]: 98 % of control

Structure (SMILES): C=Cc1cc(OC)c2c(c1)c(=O)oc1c2cc(OC)c2c(O)ccc(C3OC(C)C(O)C(C)(O)C3O)c21 (configuration not stated)
- T/C (dose: 10.0 mg/kg/injection, schedule: Q04DX004 (ip), vehicle: DMSO): 114 % of control
- T/C (dose: 20.0 mg/kg/injection, schedule: Q04DX004 (ip), vehicle: DMSO): 110 % of control
- T/C (dose: 40.0 mg/kg/injection, schedule: Q04DX004 (ip), vehicle: DMSO): 88 % of control
- T/C (dose: 80.0 mg/kg/injection, schedule: Q04DX004 (ip), vehicle: DMSO): 118 % of control
- T/C (dose: 160.0 mg/kg/injection, schedule: Q04DX004 (ip), vehicle: DMSO): 100 % of control

Structure (SMILES): S=c1sc(-c2ccc(Cl)cc2)nn1CSc1nc2ccccc2o1
- T/C (dose: 37.5 mg/kg/injection, schedule: Q04DX004 (ip), vehicle: saline with Tween-80): 86 % of control
- T/C (dose: 300.0 mg/kg/injection, schedule: Q04DX004 (ip), vehicle: saline with Tween-80): 94 % of control

Structure (SMILES): Cn1c2c(c3nc(N)nc(N)c3c1=O)CCc1ccccc1-2
- T/C (dose: 25.0 mg/kg/injection, schedule: Q04DX004 (ip), vehicle: distilled water + alcohol): 100 % of control
- T/C (dose: 50.0 mg/kg/injection, schedule: Q04DX004 (ip), vehicle: distilled water + alcohol): 104 % of control
- T/C (dose: 100.0 mg/kg/injection, schedule: Q04DX004 (ip), vehicle: distilled water + alcohol): 100 % of control

Structure (SMILES): CCCCCn1c(C)cc(/C=C\c2ccc3cc(C)ccc3[n+]2C)c1C
- T/C (dose: 1.0 mg/kg/injection, schedule: Q04DX004 (ip), vehicle: saline): 103 % of control
- T/C (dose: 2.0 mg/kg/injection, schedule: Q04DX004 (ip), vehicle: saline): 111 % of control
- T/C (dose: 4.0 mg/kg/injection, schedule: Q04DX004 (ip), vehicle: saline): 111 % of control
- T/C (dose: 8.0 mg/kg/injection, schedule: Q04DX004 (ip), vehicle: saline): 114 % of control

Structure (SMILES): Nc1nc(=S)c2[nH]cnc2[nH]1
- T/C (dose: 3.0 mg/kg/injection, schedule: Q01DX004 (ip), vehicle: Klucel (hydroxypropylcellulose) (HPC)): 163 % of control
- T/C (dose: 6.0 mg/kg/injection, schedule: Q01DX004 (ip), vehicle: Klucel (hydroxypropylcellulose) (HPC)): 178 % of control
- T/C (dose: 12.0 mg/kg/injection, schedule: Q01DX004 (ip), vehicle: Klucel (hydroxypropylcellulose) (HPC)): 182 % of control
- T/C (dose: 24.0 mg/kg/injection, schedule: Q04DX004 (ip), vehicle: Klucel (hydroxypropylcellulose) (HPC)): 175 % of control

Structure (SMILES): CNC(=O)/C=C/C1=CN2C(=O)c3ccc(C)c(O)c3NC(OC)C2C1 (configuration not stated)
- T/C (dose: 12.5 micrograms/kg/injection, schedule: Q04DX004 (ip), vehicle: saline): 101 % of control and 108 % of control
- T/C (dose: 25.0 micrograms/kg/injection, schedule: Q04DX004 (ip), vehicle: saline): 104 % of control and 124 % of control
- T/C (dose: 50.0 micrograms/kg/injection, schedule: Q04DX004 (ip), vehicle: saline): 95 % of control and 108 % of control
- T/C (dose: 100.0 micrograms/kg/injection, schedule: Q04DX004 (ip), vehicle: saline): 98 % of control and 115 % of control
- T/C (dose: 200.0 micrograms/kg/injection, schedule: Q04DX004 (ip), vehicle: saline): 112 % of control

Source: PubChem BioAssay AID292 (DTP/NCI, 2004)
